Results from PubChem BioAssay (NCI).
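Grown in 96-well plates, cells were treated for 48 hours with each compound at five concentrations. Insufficient inhibition: endpoint recorded as highest concentration tested. Definition used: TGI = concentration required for complete inhibition of growth.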

Tests used:
Assay in all cases: NCI tumour cell line growth inhibition, 48 h
XF 498 CNS = tested on: XF 498 CNS
SNB-78 CNS = tested on: SNB-78 CNS
DMS 273 small cell lung = tested on: DMS 273 small cell lung
KM20L2 colon = tested on: KM20L2 colon
DLD-1 colon = tested on: DLD-1 colon
M19-MEL melanoma = tested on: M19-MEL melanoma
LXFL 529 NSCLC = tested on: LXFL 529 NSCLC

Measured: TGI

NC(=O)NC1=NC(Cc2ccccc2)C(=O)N1Cc1ccccc1 (configuration not stated)
> 100 µM: all assays above
